Patent US20030176501A1 (priority 2000, published 2003)

How the values were obtained:
[1] = set-up: species or system human; conditions: in vivo
HMG-CoA reductase = molecular target: T1, HMG-CoA reductase (Homo sapiens, UniProt P04035); conditions: in vivo, po
T1 sequence (P04035 1-888): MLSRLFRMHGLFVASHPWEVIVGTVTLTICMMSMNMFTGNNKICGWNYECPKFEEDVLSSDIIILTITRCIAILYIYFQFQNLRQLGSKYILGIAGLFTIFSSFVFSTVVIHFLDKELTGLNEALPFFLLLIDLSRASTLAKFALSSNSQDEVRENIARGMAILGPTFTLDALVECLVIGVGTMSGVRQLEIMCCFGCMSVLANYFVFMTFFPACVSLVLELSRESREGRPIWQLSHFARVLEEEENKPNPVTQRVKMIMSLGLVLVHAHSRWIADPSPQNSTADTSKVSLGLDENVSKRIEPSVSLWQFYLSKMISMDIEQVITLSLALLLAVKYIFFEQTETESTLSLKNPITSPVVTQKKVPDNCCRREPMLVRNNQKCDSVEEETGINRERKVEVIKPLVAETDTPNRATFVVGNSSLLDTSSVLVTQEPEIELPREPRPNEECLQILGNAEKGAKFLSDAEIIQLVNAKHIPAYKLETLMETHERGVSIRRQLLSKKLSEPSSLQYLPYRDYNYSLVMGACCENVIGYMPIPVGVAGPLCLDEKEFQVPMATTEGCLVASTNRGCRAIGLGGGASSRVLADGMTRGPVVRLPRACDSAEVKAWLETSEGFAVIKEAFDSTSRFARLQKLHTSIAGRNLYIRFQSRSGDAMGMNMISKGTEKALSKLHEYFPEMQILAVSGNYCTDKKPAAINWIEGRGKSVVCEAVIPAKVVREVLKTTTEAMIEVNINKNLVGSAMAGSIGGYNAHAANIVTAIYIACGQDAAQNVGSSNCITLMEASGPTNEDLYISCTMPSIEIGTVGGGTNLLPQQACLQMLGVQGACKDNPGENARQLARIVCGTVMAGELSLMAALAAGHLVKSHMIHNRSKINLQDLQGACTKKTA

CCC(C)(C)C(=O)O[C@H]1C[C@@H](C)C=C2C=C[C@H](C)[C@H](CC[C@@H](O)C[C@@H](O)CC(=O)O)[C@H]21 [SVA, dihydroxy open acid simvastatin]
apparent t1/2, effect of itraconazole [1]: essentially unchanged | t½, SV in plasma ([1]; male, human, po): 6.7 (1.7) hr | Cmax, Active Inhibitors (HMG-CoA reductase): 5.7 ± 3.0 ng eq/mL
